Among the test systems are EKVX; OVCAR-5; HCT-15; SR; SNB-75; OVCAR-4; HOP-62; SK-OV-3; SK-MEL-5; 786-0; UACC-62; HCC 2998; SF-268; U-251; LOX IMVI; HL-60; RXF 393; SF-295; PC-3.
Common to all, as to assay: NCI-60 cell line screen, 48 h

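In this assay, cells in 96-well plates receive the compound at five concentrations for 48 hours. Endpoints are linearly interpolated between the surrounding concentrations. Here, GI50 denotes the concentration required for 50% inhibition of growth.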 Calls of active or inactive are those of the source. Rule as the data show it: active = GI50 up to about 1.1 µM and inactive = higher. Bounds are passed on as bounds.

On to `COC(=O)C12C3C4C5(C(=O)OC)C(C1C35C(=O)N(C(C)C)C(C)C)C42C(=O)N(C(C)C)C(C)C` (configuration not stated), for which the GI50 was > 50 µM (inactive) in the assay on EKVX; > 50 µM (inactive) with OVCAR-5; more than 23.3 µM with HCT-15; > 50 µM (inactive) with SR; > 35.5 µM (inactive) in the assay with SNB-75; > 35.6 µM (inactive) in the assay with OVCAR-4. Further, the GI50 in the assay with HOP-62, in the assay on SK-OV-3, in the assay on SK-MEL-5, with 786-0, with UACC-62 and in the assay on HCC 2998 was > 50 µM (inactive) throughout. Besides, the GI50 in the assay with SF-268 is > 50 µM (inactive); in the assay with U-251, > 50 µM (inactive); in the assay on LOX IMVI it was > 27.1 µM (inactive); in the assay on HL-60 it was > 36.3 µM (inactive); with RXF 393, > 50 µM (inactive); in the assay on SF-295, > 50 µM (inactive).

As to `O=C(Nc1ccc(Cl)cc1)c1cccc([N+](=O)[O-])c1O`, the GI50 in the assay on EKVX is 2.98 µM (inactive); with OVCAR-5 it was 12 µM (inactive); with HCT-15 it was 4.84 µM; with SR, 4.76 µM (inactive); with SNB-75, 3.52 µM (inactive); in the assay on OVCAR-4, 4.07 µM (inactive). For the same compound, the GI50 in the assay on HOP-62 was 1.98 µM (inactive); with SK-OV-3, 2.96 µM (inactive); in the assay on SK-MEL-5, 1.75 µM (inactive); with 786-0, 3.88 µM (inactive); in the assay on UACC-62, 1.85 µM (inactive); in the assay with HCC 2998, 1.99 µM (inactive). Also, the GI50 with SF-268 is 4.67 µM (inactive); in the assay on U-251 it was 2.7 µM (inactive); with LOX IMVI, 3.74 µM (inactive); in the assay on HL-60 it was 2.07 µM (inactive); in the assay with RXF 393, 1.78 µM (inactive); in the assay on SF-295 it was 3.29 µM (inactive).

Regarding `COC(=O)C(=O)C(C(=O)OC)C(=O)C(=O)Nc1cc(Cl)c(C)cc1S(=O)(=O)O` (configuration not stated), the GI50 in the assay on EKVX was > 100 µM (inactive); in the assay with OVCAR-5 it was > 100 µM (inactive); with HCT-15, more than 100 µM; in the assay on SR, > 100 µM (inactive); in the assay on SNB-75 it was 74.3 µM (inactive); with OVCAR-4 it was > 100 µM (inactive). Besides, the GI50 in the assay with HOP-62, in the assay on SK-OV-3, with SK-MEL-5, in the assay with 786-0, in the assay on UACC-62 and in the assay on HCC 2998 was > 100 µM (inactive) throughout. Moreover, the GI50 in the assay with SF-268, in the assay with U-251, in the assay on LOX IMVI, with HL-60, in the assay on RXF 393 and in the assay with SF-295 was > 100 µM (inactive) each time.

On to `O=C(CN(c1ccccc1)c1ccccc1)n1nnc2ccccc21`, for which the GI50 in the assay on EKVX is 36 µM (inactive); with OVCAR-5, > 100 µM (inactive); in the assay on HCT-15 it was 39.7 µM; in the assay with SR, 24.8 µM (inactive); in the assay on SNB-75, 27 µM (inactive); in the assay with HOP-62, > 100 µM (inactive). Besides, the GI50 in the assay on SK-OV-3 was > 100 µM (inactive); with SK-MEL-5, 20.7 µM (inactive); in the assay on 786-0, 39.2 µM (inactive); in the assay on UACC-62, 41.3 µM (inactive); in the assay on HCC 2998, 49.8 µM (inactive); with SF-268, 28.4 µM (inactive). Further, the GI50 is 26.1 µM (inactive) with U-251; 24.2 µM (inactive) with LOX IMVI; 29.5 µM (inactive) in the assay with HL-60; 26.1 µM (inactive) in the assay with RXF 393; 74.8 µM (inactive) in the assay with SF-295.

For the compound `COc1nc2c(c(=O)n1C)N=C(c1ccc(Cl)cc1)CC(c1ccccc1)N2` (configuration not stated), the GI50 in the assay with EKVX was 21.5 µM (inactive); in the assay with OVCAR-5 it was 25.6 µM (inactive); with HCT-15, 15 µM; with SR it was 23.7 µM (inactive); in the assay with SNB-75, 14.3 µM (inactive); in the assay with OVCAR-4, 13.3 µM (inactive). Also, the GI50 in the assay with HOP-62 was 32.1 µM (inactive); in the assay with SK-OV-3, 41.5 µM (inactive); in the assay with SK-MEL-5 it was 19.5 µM (inactive); with 786-0, 33.8 µM (inactive); in the assay on PC-3, 37.7 µM (inactive); in the assay with UACC-62, 17.6 µM (inactive). For the same compound, the GI50 was 17.7 µM (inactive) in the assay with HCC 2998; 35.1 µM (inactive) in the assay with U-251; 21.2 µM (inactive) with LOX IMVI; 22.5 µM (inactive) with RXF 393; 18.8 µM (inactive) in the assay on SF-295.

Turning to `CCOC(=O)C1Sc2ccccc2N=C1C` (configuration not stated), the GI50 in the assay with EKVX is > 100 µM (inactive); in the assay on OVCAR-5 it was > 100 µM (inactive); in the assay on HCT-15 it was more than 100 µM; in the assay on SR, > 100 µM (inactive); with SNB-75, > 100 µM (inactive); in the assay on OVCAR-4 it was > 100 µM (inactive). For the same compound, the GI50 in the assay with HOP-62, in the assay with 786-0, with HCC 2998, in the assay with SF-268, in the assay on U-251 and in the assay on LOX IMVI was > 100 µM (inactive) each time. For the same compound, the GI50 with HL-60, in the assay with RXF 393 and with SF-295 was > 100 µM (inactive) each time.

In the case of `O=c1c(O)c(-c2ccc(O)c(O)c2)oc2cc(O)cc(O)c12` [QUERCETIN], the GI50 with EKVX was 41.2 µM (inactive); in the assay with OVCAR-5 it was > 100 µM (inactive); in the assay with HCT-15 it was 36.8 µM; in the assay with SR, 35.5 µM (inactive); in the assay with SNB-75, 49 µM (inactive); in the assay with OVCAR-4, > 100 µM (inactive). Moreover, the GI50 in the assay with HOP-62 was 46.1 µM (inactive); in the assay on SK-OV-3 it was 52.7 µM (inactive); in the assay on SK-MEL-5, 92 µM (inactive); with 786-0, 59.8 µM (inactive); in the assay with UACC-62, 31.2 µM (inactive); with HCC 2998 it was > 100 µM (inactive). In addition, the GI50 was 46.7 µM (inactive) with SF-268; 49.7 µM (inactive) in the assay with U-251; 18.9 µM (inactive) with LOX IMVI; 21 µM (inactive) in the assay with HL-60; 55.7 µM (inactive) in the assay with RXF 393; 50.7 µM (inactive) in the assay on SF-295.

For `CCCN(CCC)C(=O)Cc1c2n(c3ccccc13)CCCc1ccccc1-2`, the GI50 in the assay with EKVX was 15.1 µM (inactive); with HCT-15, 11.6 µM; in the assay with SR it was 5.21 µM (inactive); in the assay with SNB-75, 11.9 µM (inactive); in the assay with OVCAR-4, 13.3 µM (inactive); with HOP-62, 16.4 µM (inactive). Moreover, the GI50 in the assay with SK-OV-3 was 15.2 µM (inactive); in the assay on SK-MEL-5, 14.3 µM (inactive); with 786-0, 16.9 µM (inactive); in the assay on UACC-62 it was 11 µM (inactive); with HCC 2998, 13.2 µM (inactive); in the assay with SF-268 it was 15.1 µM (inactive). Also, the GI50 is 15.7 µM (inactive) with U-251; 15.4 µM (inactive) in the assay with LOX IMVI; 15.4 µM (inactive) in the assay on HL-60; 10.4 µM (inactive) with RXF 393; 10.6 µM (inactive) in the assay with SF-295.

For the compound `CN(CCSCCN(C)C(=O)OC(C)(C)C)C(=O)OC(C)(C)C`, the GI50 in the assay with EKVX was > 100 µM (inactive); in the assay on OVCAR-5, > 100 µM (inactive); with HCT-15 it was more than 100 µM; in the assay with SR it was > 100 µM (inactive); with SNB-75, 61.5 µM (inactive); with OVCAR-4, > 100 µM (inactive). Further, the GI50 with HOP-62, in the assay on SK-OV-3, in the assay with SK-MEL-5, in the assay on 786-0, in the assay on PC-3 and in the assay with UACC-62 was > 100 µM (inactive) throughout. Besides, the GI50 in the assay on HCC 2998, with SF-268, with U-251, in the assay on LOX IMVI and in the assay on SF-295 was > 100 µM (inactive) each time.

Turning to `CC(C)CC(NC(=O)OC(C)(C)C)C(=O)Nc1ccc(Nc2nc(F)nc(-c3c4ccccc4c4n3CCS4)n2)cc1` (configuration not stated), the GI50 with EKVX was 19.7 µM (inactive); in the assay on OVCAR-5 it was 22.4 µM (inactive); with HCT-15, 16.3 µM; in the assay on SR, 14.1 µM (inactive); with SNB-75 it was 22.2 µM (inactive); in the assay on HOP-62, 21.2 µM (inactive). Further, the GI50 is 18.8 µM (inactive) in the assay with SK-OV-3; 23.7 µM (inactive) with SK-MEL-5; 19.8 µM (inactive) in the assay with 786-0; 17.2 µM (inactive) in the assay with UACC-62; 18 µM (inactive) in the assay with HCC 2998; 31.4 µM (inactive) in the assay on SF-268. In addition, the GI50 was 18.8 µM (inactive) with U-251, 21.9 µM (inactive) in the assay on HL-60, 34 µM (inactive) with RXF 393 and 20.9 µM (inactive) with SF-295.

`C=C1C(C(=O)O)C1C(=O)O` (configuration not stated): the GI50 with EKVX was > 100 µM (inactive); in the assay with OVCAR-5 it was > 100 µM (inactive); with HCT-15 it was more than 100 µM; in the assay on SR it was > 100 µM (inactive); in the assay with SNB-75, > 100 µM (inactive); with OVCAR-4, > 100 µM (inactive). Also, the GI50 with HOP-62, in the assay with SK-OV-3, in the assay on SK-MEL-5, with 786-0, with UACC-62 and with HCC 2998 was > 100 µM (inactive) each time. Further, the GI50 in the assay on SF-268, in the assay with U-251, in the assay on LOX IMVI, with HL-60, in the assay with RXF 393 and in the assay with SF-295 was > 100 µM (inactive) each time.

Regarding `CNC(=O)CN(CC(N)=O)C(=O)NC`, the GI50 in the assay with EKVX is > 100 µM (inactive); in the assay with OVCAR-5, > 100 µM (inactive); in the assay with HCT-15, more than 100 µM; with SR, > 100 µM (inactive); with SNB-75, > 100 µM (inactive); in the assay with OVCAR-4 it was > 100 µM (inactive). Besides, the GI50 in the assay with HOP-62, with SK-OV-3, in the assay on SK-MEL-5, with 786-0, in the assay with UACC-62 and with HCC 2998 was > 100 µM (inactive) in each case. Besides, the GI50 in the assay with SF-268, in the assay on U-251, with LOX IMVI, in the assay with HL-60, in the assay with RXF 393 and in the assay with SF-295 was > 100 µM (inactive) each time.
